Test results: BindingDB's records for doi:10.7270/Q2ZC817P (The Scripps Research Institute Molecular Screening Center, 2007)

Target: Sphingosine 1-phosphate receptor 1 (Homo sapiens, UniProt P21453)
Test: potentiators of S1P1 agonist response, dose response, cell-based, potentiator mode, 60K MLSMR set (AID 466)
Settings: not given

Sequence of Sphingosine 1-phosphate receptor 1 (P21453 whole entry): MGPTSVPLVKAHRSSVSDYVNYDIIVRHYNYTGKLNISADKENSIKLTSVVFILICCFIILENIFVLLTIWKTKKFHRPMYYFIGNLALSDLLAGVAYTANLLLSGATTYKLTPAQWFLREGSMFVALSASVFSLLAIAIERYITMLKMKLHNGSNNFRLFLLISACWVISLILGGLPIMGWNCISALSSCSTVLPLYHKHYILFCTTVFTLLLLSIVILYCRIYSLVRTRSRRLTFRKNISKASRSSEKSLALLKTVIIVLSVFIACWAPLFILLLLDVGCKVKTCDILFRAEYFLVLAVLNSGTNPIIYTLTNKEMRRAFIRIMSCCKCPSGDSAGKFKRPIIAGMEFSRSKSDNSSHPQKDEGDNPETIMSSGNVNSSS

| Structure (SMILES) | EC50 [µM] |
| --- | --- |
| CCN(C(=O)c1ccc(C(C)(C)C)cc1)c1nnc(Cn2nnc3ccccc32)s1 [MLS000072751] | 1.82 |
| Cc1ccc2c(c1)N(CC(=O)Nc1ccc3c(c1)OCCO3)C(=O)CO2 [MLS000074457] | > 95 |
| CCCN(C(=O)c1cccs1)c1nnc(-c2ccncc2)s1 [MLS000074637] | 2.96 |
| Cc1ccnc(SCC(=O)Nc2sc3c(c2C#N)CCCC3)n1 [MLS000077260] | 5.24 |
| c1ccc(CN2CCN(c3ncnc4c3[nH]c3ccccc34)CC2)cc1 [MLS000078384] | 3.95 |
| Fc1ccc2[nH]c3c(N4CCSCC4)ncnc3c2c1 [MLS000078401] | 6.28 |
| NC(=Nc1nc2c(c(=O)[nH]1)CCCC2)Nc1ccccc1 [MLS000078734] | 5.87 |
| COc1ccc(OC)c(-c2cc(C(=O)Nc3c(C)nn(Cc4ccc(Cl)cc4)c3C)no2)c1 [MLS000087191] | > 10 |
| CCc1ccc(NC(=O)c2cc(-c3ccco3)on2)cc1 [MLS000087211] | 4.44 |
| CCc1c(C)sc(NC(=O)c2cc(-c3ccco3)on2)c1C#N [MLS000087225] | 3.67 |
| COc1ccc(NC(=O)c2cc(-c3cccs3)on2)cc1OC [MLS000087261] | 5.28 |
| COc1ccc2c(c1)CCc1c(C(=O)Nc3ccc(OC)c(OC)c3)noc1-2 [MLS000087452] | 2.83 |
| CCOc1ccc(C(C)=O)cc1-n1c(O)c2c(c1O)C1C=CC2O1 [MLS000087730] | 10.8 |
| Cn1c(SCC(=O)Nc2ccc(N3CCOCC3)c(Cl)c2)nnc1-c1ccccc1 [MLS000089171] | 2.06 |
| O=S(=O)(NCc1cn2ccsc2n1)c1ccc(Oc2ccccc2)cc1 [MLS000094195] | 5 |
| CCCC(=O)N1CCN(c2ccc(NC(=O)c3cc4ccccc4o3)cc2Cl)CC1 [MLS000096729] | 8.63 |
| CCCc1ccc(OCc2nc(-c3ccc(NC(=O)c4ccco4)cc3)no2)cc1 [MLS000097352] | 4.08 |
| O=C(Nc1nc(-c2ccc(Cl)s2)cs1)c1ccncc1 [MLS000098514] | > 10 |
| O=C(Nc1ccc(S(=O)(=O)NCc2ccco2)cc1)c1ccc2ccccc2n1 [MLS000098663] | 6.51 |
| Cc1cccc(-n2ncc3c(N(C)C4CCCCC4)ncnc32)c1 [MLS000100814] | > 95 |
| O=C(c1ccc(Cl)s1)N1CCN(c2nc3ccccc3s2)CC1 [MLS000100900] | > 30 |

| Structure (SMILES) | EC50 [µM] |
| --- | --- |
| Cc1nc2ccc3nc(NC(=O)C4COc5ccccc5O4)sc3c2s1 (stereo not drawn) [MLS000100909] | 4.01 |
| CCc1nnc(NC(=O)C2CCCCC2)s1 [MLS000104554] | > 95 |
| CC(=O)Oc1ccc(-n2c(O)c3c(c2O)C2(C)C=CC3(C)O2)cc1 [MLS000107813] | 13.4 |
| COc1ccc(NC(=O)c2cnn3c(C(F)(F)F)cc(-c4ccco4)nc23)cc1OC [MLS000109325] | > 95 |
| Cc1cc2nc(-c3ccc(NC(=O)C(C)C)cc3)oc2cc1C [MLS000109473] | 2.77 |
| COc1ccc(CN=O)cc1COc1ccc(NC(C)=O)cc1 [MLS000111933] | > 95 |
| COC(=O)Cc1sc(=O)[nH]c1Nc1ccccc1 [MLS000111966] | > 95 |
| Cc1cc(C=Nn2cnnc2)c(C)n1-c1ccc(OCc2ccc(F)cc2)cc1 [MLS000112167] | 0.502 |
| Cc1cc(C=Nn2cnnc2)c(C)n1-c1ccc(OCc2ccccc2F)cc1 [MLS000112180] | 0.803 |
| CC(C)(C)SCCNS(=O)(=O)c1ccccc1 [MLS000112230] | > 95 |
| COc1ccc(-c2nc(-c3ccc(NC(=O)c4ccncc4)cc3)no2)cc1OC [MLS000115086] | 0.685 |
| O=C(Nc1c(F)cc(F)cc1Br)c1cc(-c2ccc(O)cc2)on1 [MLS000116264] | 2.14 |
| CCCc1cc(C(=O)Nc2sc(C)c(CC)c2C#N)no1 [MLS000116385] | 3.08 |
| CCCc1cc(C(=O)Nc2sc3c(c2C#N)CCC3)no1 [MLS000116386] | > 95 |
| CC(C)Cc1cc(C(=O)Nc2sc3c(c2C#N)CCCC3)no1 [MLS000116410] | 9.59 |
| Cc1nn(Cc2ccc(Cl)c(Cl)c2)c(C)c1NC(=O)c1cc(CC(C)C)on1 [MLS000116412] | 9.37 |
| Cc1noc(C)c1S(=O)(=O)N(CC(=O)Nc1ccc2c(c1)OCO2)c1ccc(C(C)C)cc1 [MLS000117405] | > 95 |
| Cc1nc2ccccc2c2oc(C(=O)NCC3COc4ccccc4O3)cc12 (stereo not drawn) [MLS000118430] | 9.7 |
| COc1ccc(CNC(=O)c2cc3c(C)nc4ccccc4c3o2)c(OC)c1 [MLS000118441] | 5.06 |
| Cc1csc(NC(=O)C(Cc2ccccc2)n2cccc2)n1 (stereo not drawn) [MLS000119019] | 2.28 |
| O=C(Nc1ncc(Br)s1)C(Cc1ccccc1)n1cccc1 (stereo not drawn) [MLS000119027] | 2.92 |

| Structure (SMILES) | EC50 [µM] |
| --- | --- |
| CCSc1nnc(NC(=O)C(Cc2ccccc2)n2cccc2)s1 (stereo not drawn) [MLS000119034] | > 30 |
| COc1ccc(S(=O)(=O)Cc2ccc(C(=O)N3CCN(c4cccc(C)c4C)CC3)o2)cc1 [MLS000120226] | > 30 |
| Cc1ccc(-c2csc(N3CCC(NS(=O)(=O)c4ccc5c(c4)OCCO5)CC3)n2)cc1 [N-[1-[4-(4-methylphenyl)-1,3-thiazol-2-yl]piperidin-4-yl]-2,3-dihydro-1,4-benzodioxine-6-sulfonamide] | 1.4 |
| c1ccc(CNc2ncnc3ccccc23)cc1 [N-benzylquinazolin-4-amine] | 4.27 |
| CC1Cc2ccccc2N1c1ncnc2nc[nH]c12 (stereo not drawn) [SMR000017649] | 7.03 |
| O=S1(=O)C=C(Sc2nc3cc(Cl)ccc3o2)c2ccccc21 [SMR000019512] | > 30 |
| CCCc1ccc(Oc2c[nH]nc2-c2ccc(O)c(C)c2O)cc1 [SMR000024172] | 14.9 |
| Cc1oc(-c2ccccc2)nc1Cn1cccc1C1=NC(c2ccccc2)CO1 (stereo not drawn) [SMR000026251] | 0.692 |
| CCC(NC(C)c1ccccc1)=C1C(=O)N(C)C(=O)N(C)C1=O (stereo not drawn) [SMR000043429] | 14.4 |
| Cc1ccc2c(c1)[nH]c1c(N3CCN(Cc4ccccc4)CC3)ncnc12 [SMR000044826] | 3.65 |
| COC(=O)CS(=O)(=O)c1nnc([C@H](Cc2ccccc2)NC(=O)OC(C)(C)C)o1 [SMR000046685] | 8.44 |
| CC(C)(C)OC(=O)N[C@@H](Cc1ccccc1)c1nnc(S(=O)(=O)Cc2ccccc2)o1 [SMR000047857] | 5.33 |
| CCc1cc(-c2n[nH]cc2-c2ccc3c(c2)OCO3)c(O)cc1O [SMR000060132] | 6.57 |
| Cc1cc(C(=O)CSc2nnc(-c3cccnc3)n2-c2ccccc2F)c(C)n1C [SMR000064090] | 0.87 |
| Clc1ccc(-n2nnnc2Sc2ncnc3sccc23)cc1 [SMR000066808] | 5.29 |
| Cc1ccccc1OCCCCc1c(C)n[nH]c1C [SMR000103095] | 6.51 |
| COc1ccccc1OCCCCCc1c(C)n[nH]c1C [SMR000103101] | 8.22 |
| Cc1cccc(OCCCCc2c(C)n[nH]c2C)c1C [SMR000103133] | 4.86 |
| CCn1c(-c2cccc(Cl)c2)n[nH]c1=S [SMR000104244] | > 95 |
| CC1(C)CC(=O)C(=CNc2ccc3[nH]ncc3c2)C(=O)C1 [SMR000111453] | 6.01 |
| CN=C(NC#N)SCC(=O)c1ccc(Cl)cc1Cl [[2-(2,4-dichlorophenyl)-2-oxidanylidene-ethyl] N-cyano-N'-methyl-carbamimidothioate] | 4.32 |

Same assay, conditions: inactive by the depositor's call

| Structure (SMILES) | EC50 [µM] |
| --- | --- |
| O=C(Nc1nc(-c2ccc3c(c2)OCO3)cs1)c1ccncc1 [MLS000073104] | 12 |
| O=C(c1ccco1)N1CCN(c2ncnc3c2[nH]c2ccc(Br)cc23)CC1 [MLS000078404] | 15.5 |
| CCN(CC)C(=O)Oc1ccc2c(=O)c(-c3ccc(OC)cc3)coc2c1 [MLS000083046] | 10.9 |
| COc1ccc(-c2cc(C(=O)NC3CCCC3)no2)cc1OC [MLS000087117] | 13.7 |
| Cc1nn(Cc2ccc(Cl)cc2)c(C)c1NC(=O)c1cc(-c2ccco2)on1 [MLS000087233] | 14.1 |
| COc1ccc2c(c1)CCc1c(C(=O)NC3CCCCC3)noc1-2 [MLS000087437] | 88.9 |
| O=C(Nc1nc(-c2nc3ccccc3s2)cs1)c1ccc(S(=O)(=O)N2CCOCC2)cc1 [MLS000087900] | 15.5 |
| CCCC(=O)Nc1ccc(-c2nc3cc(C)c(C)cc3o2)cc1 [MLS000089940] | 10.8 |
| CCC(=O)Nc1ccc2c(c1)C(=O)N(C1CCCCC1)C2=O [MLS000099936] | 58 |
| CCCOc1ccc(S(=O)(=O)NCc2ccc(OC)cc2)cc1 [MLS000104592] | 19.8 |
| CC(=O)Nc1ccc(S(=O)(=O)N2CCN(c3cccc(C)c3C)CC2)cc1 [MLS000115810] | 16.7 |
| CSc1ccc(S(=O)(=O)Nc2ccc3c(c2)OCCO3)cc1 [MLS000115922] | 18 |
| CC(C)Cc1cc(C(=O)Nc2cc(Br)ccc2O)no1 [MLS000116399] | 16.5 |
| CCCOC(=O)c1[nH]c2c(c1C)C(=O)CC(c1cc(OC)c(OC)c(OC)c1)C2 (stereo not drawn) [MLS000116504] | 12.9 |
| CCC(C)OC(=O)c1[nH]c2c(c1C)C(=O)CC(c1ccc(N(C)C)cc1)C2 (stereo not drawn) [MLS000116530] | 18 |
| Cc1noc(C)c1S(=O)(=O)N(CC(=O)Nc1ccc2c(c1)OCCO2)c1ccc(C(C)C)cc1 [MLS000117406] | 15.9 |
| Cc1ccc(Cl)cc1N1CCN(C(=O)C2CCN(c3nnc(-n4cccc4)s3)CC2)CC1 [MLS000119702] | 43.3 |
| COc1ccc(S(=O)(=O)Cc2ccc(C(=O)N3CCN(c4ccc(Cl)cc4)CC3)o2)cc1 [MLS000120227] | 14.7 |
| Cc1cccc(N2CCN(C(=O)C3CCCN(S(=O)(=O)c4cccc5cccnc45)C3)CC2)c1C (stereo not drawn) [MLS000120299] | 16.1 |
| COc1ccc2c(c1)-c1nc(NC(=O)c3cccs3)sc1CC2 [N-(8-methoxy-4,5-dihydrobenzo[e][1,3]benzothiazol-2-yl)-2-thiophenecarboxamide] | 20.5 |
| CCC(C)c1ccc2oc(-c3ccc(NC(=O)c4nnc[nH]4)cc3)nc2c1 (stereo not drawn) [N-[4-(5-sec-butyl-1,3-benzoxazol-2-yl)phenyl]-1H-1,2,4-triazole-3-carboxamide] | 12.7 |
| Clc1ccc(CCNc2[nH]cnc3ncnc2-3)cc1 [SMR000017624] | 10.6 |
| Cc1ccccc1CS(=O)(=O)c1nnc([C@H](CC(C)C)NC(=O)OC(C)(C)C)o1 [SMR000044673] | 10.1 |
| C=CCOC(=O)c1[nH]c2c(c1C)C(=O)CC(c1cc(OC)c(OC)c(OC)c1)C2 (stereo not drawn) [SMR000093465] | 11.1 |
| Cc1cccc(OCCCCc2c(C)n[nH]c2C)c1 [SMR000103102] | 10.6 |
